Test results as given in ChEMBL document CHEMBL1133979, “1,2,4-triazolo[3,4-a]pyridine as a novel, constrained template for fibrinogen receptor (GPIIb/IIIa) antagonists” (Bioorg Med Chem Lett, 2001).

Columns and labels:
Canis familiaris = test: Ex vivo oral duration for maintaining at least 50% inhibition of platelet aggregation induced by adenosine diphosphate after administration at a dose of at 1 mg/kg; type: functional, Canis lupus familiaris
[1] = target: T1, Integrin alpha-IIb/beta-3 (Homo sapiens, UniProt P05106+P08514); test: Inhibition of biotinylated fibrinogen binding to immobilized integrin GPIIb/IIIa; type: protein-complex assay
[2] = Oral bioavailability in dog; type: ADME, organism-based, Canis lupus familiaris; conditions: in vivo
[3] = target: T1, Integrin alpha-IIb/beta-3; test: Inhibition of thrombin-induced human gel-filtered platelet aggregation at 50 uM; NA= Inactive; type: functional
[4] = Half life in dog; type: ADME, organism-based, Canis lupus familiaris; conditions: in vivo

T1 sequence (P05106 27-788 limits assumed): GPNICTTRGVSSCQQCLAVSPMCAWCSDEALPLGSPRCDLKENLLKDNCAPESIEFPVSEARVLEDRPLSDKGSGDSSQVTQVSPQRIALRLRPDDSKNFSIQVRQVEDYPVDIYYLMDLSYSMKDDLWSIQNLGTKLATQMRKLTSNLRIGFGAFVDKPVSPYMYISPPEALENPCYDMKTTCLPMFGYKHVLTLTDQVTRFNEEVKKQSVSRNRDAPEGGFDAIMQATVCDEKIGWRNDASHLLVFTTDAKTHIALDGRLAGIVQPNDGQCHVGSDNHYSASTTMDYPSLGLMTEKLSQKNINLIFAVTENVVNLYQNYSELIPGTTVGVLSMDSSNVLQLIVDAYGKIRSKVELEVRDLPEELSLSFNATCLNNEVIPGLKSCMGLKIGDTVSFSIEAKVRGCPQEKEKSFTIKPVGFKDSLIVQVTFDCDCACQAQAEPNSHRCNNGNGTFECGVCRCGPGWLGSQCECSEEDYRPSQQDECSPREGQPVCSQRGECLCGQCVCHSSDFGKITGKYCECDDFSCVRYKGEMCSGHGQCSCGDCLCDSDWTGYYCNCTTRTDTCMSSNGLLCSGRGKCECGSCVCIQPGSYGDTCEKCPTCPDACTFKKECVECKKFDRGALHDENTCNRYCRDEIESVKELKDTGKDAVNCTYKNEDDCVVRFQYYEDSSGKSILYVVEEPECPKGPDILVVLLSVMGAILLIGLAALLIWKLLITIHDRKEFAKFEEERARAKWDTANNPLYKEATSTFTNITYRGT
T1 sequence (P08514 32-887 limits assumed): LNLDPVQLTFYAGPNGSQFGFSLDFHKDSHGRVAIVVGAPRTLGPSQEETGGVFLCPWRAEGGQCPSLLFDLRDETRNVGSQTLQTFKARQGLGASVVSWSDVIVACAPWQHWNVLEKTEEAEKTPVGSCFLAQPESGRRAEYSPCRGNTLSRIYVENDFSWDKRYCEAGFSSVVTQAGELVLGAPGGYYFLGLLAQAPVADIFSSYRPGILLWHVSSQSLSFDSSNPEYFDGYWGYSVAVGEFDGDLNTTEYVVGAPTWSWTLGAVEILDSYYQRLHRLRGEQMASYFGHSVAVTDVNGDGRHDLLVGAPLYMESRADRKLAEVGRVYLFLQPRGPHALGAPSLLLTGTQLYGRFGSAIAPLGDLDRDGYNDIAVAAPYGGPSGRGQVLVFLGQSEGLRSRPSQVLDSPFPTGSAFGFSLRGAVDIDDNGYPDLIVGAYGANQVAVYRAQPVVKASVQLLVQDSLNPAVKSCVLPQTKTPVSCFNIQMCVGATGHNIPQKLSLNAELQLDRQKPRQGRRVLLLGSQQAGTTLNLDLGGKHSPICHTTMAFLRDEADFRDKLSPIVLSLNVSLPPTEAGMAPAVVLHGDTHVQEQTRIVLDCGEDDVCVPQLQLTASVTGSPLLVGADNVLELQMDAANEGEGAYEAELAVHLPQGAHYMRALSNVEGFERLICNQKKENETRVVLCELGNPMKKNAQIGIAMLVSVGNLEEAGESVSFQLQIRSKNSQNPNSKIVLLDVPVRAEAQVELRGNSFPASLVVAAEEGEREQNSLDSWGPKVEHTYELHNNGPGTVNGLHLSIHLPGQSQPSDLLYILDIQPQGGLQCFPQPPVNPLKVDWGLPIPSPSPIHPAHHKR
T1 sequence (P08514 891-1039 limits assumed): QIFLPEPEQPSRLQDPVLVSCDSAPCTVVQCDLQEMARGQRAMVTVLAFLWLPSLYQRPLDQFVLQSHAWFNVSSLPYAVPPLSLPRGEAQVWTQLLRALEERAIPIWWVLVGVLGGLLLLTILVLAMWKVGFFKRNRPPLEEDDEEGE

Row | IC50 [1] | SMILES | Oral duration (Canis familiaris) | other results
1 | 0.32 nM | O=C(N[C@@H](CNC(=O)C1CCCn2c(/C=C/C3CCNCC3)nnc21)C(=O)O)OCc1ccccc1 (stereo not given in full) | >6 h | bioavailability [2]: 23%
2 | 0.17 nM | O=C(N[C@@H](CNC(=O)[C@@H]1CCCN(C(=O)CCC2CCNCC2)C1)C(=O)O)OCc1ccccc1 | 3 h | –
3 | 0.36 nM | O=C(O)C[C@H](NC(=O)[C@@H]1CCCN(C(=O)CCC2CCNCC2)C1)c1cccnc1 [ELAROFIBAN] | 5 h | half-life [4]: 5 h; bioavailability ([2]; read-out: Bioavailabiility): 16%

Continued, compound first:

Row | SMILES | IC50 [1] | Oral duration (Canis familiaris) | other results
4 | O=C(O)C[C@H](NC(=O)C1CCCn2c(CCC3CCNCC3)nnc21)c1cccnc1 (stereo not given in full) | 0.53 nM | 3 h | –
5 | O=C(O)C[C@H](NC(=O)c1cccn2c(CCC3CCNCC3)nnc12)c1cccnc1 | 4.2 nM | – | –
6 | O=C(O)C[C@H](NC(=O)C1CCCn2c(/C=C/C3CCNCC3)nnc21)c1cccnc1 (stereo not given in full) | 0.21 nM | >6 h | bioavailability [2]: 31%
7 | O=C(NC[C@H](NS(=O)(=O)Cc1ccccc1)C(=O)O)C1CCCn2c(/C=C/C3CCNCC3)nnc21 (stereo not given in full) | – | <0.5 h | –
8 | O=C(N[C@@H](CNC(=O)C1CCCn2c(CCC3CCNCC3)nnc21)C(=O)O)OCc1ccccc1 (stereo not given in full) | – | 4 h | –
9 | O=C(O)C[C@H](NC(=O)C1CCCn2c(/C=C/C3CCNCC3)nnc21)c1cnc2ccccc2c1 (stereo not given in full) | – | 4.5 h | –
10 | CC1(C(=O)NC[C@H](NC(=O)OCc2ccccc2)C(=O)O)CCCn2c(CCC3CCNCC3)nnc21 (stereo not given in full) | – | <0.5 h | –
11 | O=C(O)C[C@H](NC(=O)c1cccn2c(/C=C/C3CCNCC3)nnc12)c1cccnc1 | – | – | IC50 [3]: Not Active
